One experiment deals with T1, BRD9 (Homo sapiens, UniProt Q9H8M2).
T1 sequence (Q9H8M2 1-597): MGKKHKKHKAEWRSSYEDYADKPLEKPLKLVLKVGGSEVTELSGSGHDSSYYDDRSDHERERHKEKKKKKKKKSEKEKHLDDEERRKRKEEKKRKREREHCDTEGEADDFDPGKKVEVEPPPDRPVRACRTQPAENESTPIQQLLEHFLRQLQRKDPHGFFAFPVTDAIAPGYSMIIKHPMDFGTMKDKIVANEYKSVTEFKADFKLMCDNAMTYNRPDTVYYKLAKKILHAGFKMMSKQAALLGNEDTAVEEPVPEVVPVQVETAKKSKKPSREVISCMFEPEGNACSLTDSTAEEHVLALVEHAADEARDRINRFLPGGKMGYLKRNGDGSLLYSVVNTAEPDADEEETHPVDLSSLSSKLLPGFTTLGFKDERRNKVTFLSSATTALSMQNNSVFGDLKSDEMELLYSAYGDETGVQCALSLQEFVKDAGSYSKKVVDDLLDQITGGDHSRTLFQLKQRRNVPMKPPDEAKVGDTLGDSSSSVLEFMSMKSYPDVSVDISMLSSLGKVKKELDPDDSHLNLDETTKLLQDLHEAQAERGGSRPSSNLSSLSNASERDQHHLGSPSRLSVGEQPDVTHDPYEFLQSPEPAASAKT
Nature of the experiment: Pharmacodynamic activity in SYO-1 xenograft model (tumor BRD9 western blot). In kind it is in vivo, mice. Further details: from tissue; host or cells: SYO-1 xenograft tumours in BALB/c nude or NOD SCID mice. To be noted: for BRD9 protein levels depleted by: 20% SBECD. As for the experimental part:
Method. The SYO-1 tumor cells were maintained in vitro as adherent cells in Dulbecco's Modified Eagle Medium (DMEM) supplemented with 10% fetal bovine serum at 37° C. in an atmosphere of 5% CO2 in air. The cells growing in an exponential growth phase were harvested and counted for tumor inoculation. BALB/c Nude mice (Shanghai Lingchang biological science) were inoculated subcutaneously on the right flank with (5×10^6) in 0.1 mL of phosphate buffered saline (PBS). The treatment-(described in table 6)—was started on day 19 after tumor inoculation, when the average tumor size reached 499 mm^3.
Mice were treated with racemic D1, 1 mg/kg, i.p. for 4 weeks, mice were euthanized, and tumors collected 1, 4, 8, 24, 48 and 72-hour post last dose. Tumors were lysed with 1×RIPA lysis buffer (Boston BioProducts, BP-115D) with protease and phosphatase protein inhibitor (Roche Applied Science #04906837001 & 05892791001). Equal amount of lysate (30 ug) were loaded in 4-12% Bis-Tris Midi Protein Gels in 1×MOPS buffer; samples ran at 120 V for 120 min. Proteins was transferred to membrane (NC) with TransBlot at 250 mA for 150 minute, then membranes were blocked with Odyssey Blocking buffer for 1 hour at room temperature. Membranes were hybridized overnight in cold room with primary antibodies. Images acquired using Li-COR imaging system (Li-COR Biotechnology, Lincoln, Nebraska).
Further study. The other study examined a range of compound D1 dose levels (0.05, 0.25, 1 or 5 mg/kg) formulated in a vehicle of 20% SBECD for tumor BRD9 protein levels up to 144 hours post dose. […] BRD9 protein levels were still depleted by 83.4% and 73.2% at 120 hours (5 days) and 144 hours (6 days), respectively, after a single IV administration of 5 mg/kg of compound D1, which corresponds to ˜2.5 mg/kg of compound S-D1.
Background: In western blotting, separated proteins are transferred to a membrane and probed.

A further experiment addresses T2, endogenous BRD9 (Homo sapiens, UniProt Q9H8M2).
T2 sequence (Q9H8M2 1-597): T1 sequence (Q9H8M2 1-597)
The experiment is described as follows: Western blot dose response of endogenous BRD9 degradation in cancer cell lines of different lineage. In kind it is cell-based. The conditions noted are these: for potency of endogenous BRD9 degradation (western blot): 6 hours. The protocol: Compound D1 and Compound S-D1 Dose Response Experiments in Multiple Cell Lines of Different Lineage. To evaluate the efficacy of compound S-D1 ((S)-enantiomer) and compound D1 (racemic) to degrade BRD9 across different cancer lineages (listed in Table 19), dose response experiments were performed in SYO-1, EOL-1, MD-MBA-231, OVCAR8, and PC-9 cell lines. After cell treatment, BRD9 protein levels were assessed by western blot analyses.
Cells grown in flasks to log phase growth were washed with PBS and dissociated by adding TrypLE™ Express (Foghorn) or Trypsin-EDTA 0.25% (Pharmaron). Collected cells were resuspended in their respective cell culture media, counted, and seeded at the indicated cell density in 6-well plates. Two wells were allocated per sample. Plates were incubated at 37° C. with 5% CO2 overnight.
The next day, compound was added to a final concentration as indicted in FIGS. 32B, 32C, and 32D with 3-fold dilution steps, with the final DMSO content of 0.1% (v/v) matching the untreated control. After 6 hours of incubation, cells were harvested, resuspended in PBS, and centrifuged at 5,000 rpm for 5 minutes. After being washed twice with PBS, the resulting cell pellets were stored at −80° C.
Cell lines and cell treatment procedures are highlighted in Table 19 and specific details about western blot procedures are listed in Table 20. The western blot procedure was as described above.

In a further experiment the test system is SYO-1 tumor. The experiment is described as follows: Intermittent dosing schedules, IV, SYO-1 xenograft efficacy. Format: in vivo, mice. To be noted: for Tumor Size (mm^3) on Day 24: SYO-1 tumor-bearing NOD SCID mice, Mean ± SEM. As for the experimental part: The objective of this study was to provide proof-of-concept of anti-tumor efficacy with intermittent dosing schedules for compound S-D1 by IV administration. Groups of female SYO-1 tumor-bearing NOD SCID mice (n=10/group) were dosed IV with vehicle, compound D1 or compound S-D1 for 24 days according to treatments and dosing schedules shown in Table 10. Compound D1 was formulated in 10% DMSO/40% PEG400/50% water and compound S-D1 was formulated in 20% SBECD in 5 mM citrate buffer, final pH was adjusted to 5 with 1 N NaOH. For the compound S-D1 treatment groups, plasma samples were collected at designated time points following the last dosing. Plasma samples were acidified to stabilize the compound right after collection and analyzed for compound S-D1 concentrations.

[1] abbreviates: 1 mg/kg BIW IV, 24 days (compound D1).
Setting [2] is: 1 mg/kg BIW IV, 24 days (compound S-D1).

Entries after “also recorded” stand apart in the source; their conditions may differ.

The source of these data is patent US20240325370A1, “THERAPEUTIC REGIMENS OF A DEGRADER OF BRD9” (FOGHORN THERAPEUTICS INC., priority 2021, published 2024).

Take `COc1cc(-c2cn(C)c(=O)c3cnc(N4CCC4)cc23)cc(OC)c1CN1CCC(CN2CCC3(CC2)CN(c2ccc4c(c2)C(=O)N(C2CCC(=O)NC2=O)C4)C3)CC1` (racemic) [Compound D1, 3-[6-(7-[[1-([4-[6-(azetidin-1-yl)-2-methyl-1-oxo-2,7-naphthyridin-4-yl]-2,6-dimethoxyphenyl]methyl)piperidin-4-yl]methyl]-2,7-diazaspiro[3.5]nonan-2-yl)-1-oxo-3H-isoindol-2-yl]piperidine-2,6-dione]: the “tumor BRD9 protein level response” value on BRD9 (0.05, 0.25, 1 or 5 mg/kg, up to 144 hours post dose) is “robust and dose- and time-dependent”. Also, the “BRD9 protein levels depleted by” value is reported as 83.4% at BRD9 (120 hours (5 days) after a single IV administration of 5 mg/kg) and 73.2% on BRD9 (144 hours (6 days) after a single IV administration of 5 mg/kg). Further, the “potency of endogenous BRD9 degradation (western blot)” value is on record as “comparable potency” at endogenous BRD9 (MDA-MB-231 (breast cancer), OVCAR8 (ovarian cancer) and EOL1 cells); “reduced potency” on endogenous BRD9 (PC-9 (EGFR mutant lung cancer) cells). In addition, the “T/C (%)” value with SYO-1 tumor (setting [1]) was 12.6%. For the same molecule, in the experiment with SYO-1 tumor (setting [1]), the “TGI (%)” value worked out at 87.4%. Further, in the experiment with SYO-1 tumor (1 mg/kg BIW IV, 24 days), the “Tumor Size (mm^3) on Day 24” value stood at 426 ± 49 mm^3.

With `COc1cc(-c2cn(C)c(=O)c3cnc(N4CCC4)cc23)cc(OC)c1CN1CCC(CN2CCC3(CC2)CN(c2ccc4c(c2)C(=O)N([C@H]2CCC(=O)NC2=O)C4)C3)CC1` (single isomer, unassigned) [Compound S-D1], the “Pharmacodynamic activity: tumor BRD9 protein level by western blot” value on BRD9 (SYO-1 xenograft, BALB/c Nude mice, single dose i.v. (Table 6), listed as Enantiomer 2) was “significant activity; also recorded: degraded BRD9 up to 72 hours after a single dose; also recorded: equipotent to racemic compound D1”. Moreover, at endogenous BRD9 (with 1 μM Bortezomib, a proteasome inhibitor (FIG. 32D, EOL-1 cells)), the “BRD9 degradation activity when proteasome blocked” value is reported as “largely abrogated”. Moreover, in the experiment with SYO-1 tumor (0.05 mg/kg BIW IV, 24 days), the “T/C (%)” value was 58.2%, the “TGI (%)” value stood at 41.8% and the “Tumor Size (mm^3) on Day 24” value is reported as 1946 ± 123 mm^3. Besides, in the experiment with SYO-1 tumor (setting [2]), the “T/C (%)” value was determined as 8.1%, the “TGI (%)” value stood at 91.9% and the “Tumor Size (mm^3) on Day 24” value is reported as 280 ± 37 mm^3. Further, in the experiment on SYO-1 tumor (2 mg/kg QW IV, 24 days), the “T/C (%)” value is reported as 10.1%, the “TGI (%)” value is 89.9% and the “Tumor Size (mm^3) on Day 24” value was 341 ± 38 mm^3. Besides, the tumor response entry in the experiment on SYO-1 tumor (0.25 or 1 mg/kg twice weekly IV, SYO-1 tumor) is “tumor stasis”.
